We go through 14 compounds from patent US20110144079A1, “ANTIMICROBIAL SYSTEM” (priority 2008, published 2011).

What all share (assay): Broth microdilution MIC/MBC
The test system of one experiment is B. cereus. In kind it is cell-based. Conditions: 24 h at 37° C. The procedure:
(§1) Broth microdilution tests were performed according to NCCLS guidelines. Serial two-fold dilutions of each imidazolium salt (from an original working solution which had been 0.22 μm sterile filtered) in Mueller-Hinton Broth (MHB) (100 μl) were prepared in 96-well micro-titre plates over the range 0.0000625-1% w/v. The inoculum to be tested was prepared by adjusting the turbidity of an actively overnight growing broth culture in MHB to an optical density at 550 nm equivalent to 1×10^8 CFU/ml. The suspension was further diluted to provide a final inoculum density of 2×10^5 CFU/ml in MHB as verified by total viable count. The inoculum to be tested (100 μl, 2×10^5 CFU ml^−1) was added to each well of the microdilution trays which were incubated aerobically for 24 h at 37° C. Positive and negative growth controls were included in every assay (6 replicates). After determining the MICs, minimum bactericidal concentrations (MBCs) were determined by spreading 20 μl of suspension from wells showing no growth onto MHA plates, which were then incubated for 24 h and examined for 99.9% killing.

The next experiment relates to E. coli NCTC 8196. Format: cell-based. The settings on record: E. coli NCTC 8196, 24 h at 37° C. The protocol: as §1
The subject of experiment [1] is S. epidermidis ATCC 12228. Format: cell-based. The settings on record: S. epidermidis ATCC 12228, 24 h at 37° C. The procedure:
as §1

Another experiment has as its system C. tropicalis NCTC 7393. Format: cell-based. Conditions: C. tropicalis NCTC 7393, 24 h at 37° C. The procedure: as §1
A further experiment deals with K. aerogenes NCTC 7427. In kind it is cell-based. Conditions: K. aerogenes NCTC 7427, 24 h at 37° C. The procedure: as §1
For the next experiment, the system named is P. mirabilis NCTC 12442. Format: cell-based. The settings on record: P. mirabilis NCTC 12442, 24 h at 37° C. The procedure:
as §1

A further experiment relates to S. aureus ATCC 29213. Format: cell-based. Conditions: S. aureus ATCC 29213, 24 h at 37° C. The protocol:
as §1

For experiment [2], the system named is S. epidermidis ATCC 35984. In kind it is cell-based. Conditions: S. epidermidis ATCC 35984, 24 h at 37° C. The protocol: as §1
A further experiment deals with P. aeruginosa PA01. Format: cell-based. The settings on record: Pseudomonas aeruginosa, PA01, 24 h, P. aeruginosa PA01, 24 h at 37° C.; read-out: MIC. The protocol:
as §1

The next experiment concerns MRSA. In kind it is cell-based, methicillin-resistant S. aureus. Conditions: Staphylococcus aureus, 24 h at 37° C. The protocol: as §1

Take `CCCCCCCC[n+]1ccn(C)c1.[Br][Ag-][Br]` [1-alkyl-3-methylimidazolium-AgBr2 8]: the MIC with B. cereus was found to be 168.5 µM; against E. coli NCTC 8196 it was 136.69 µM; in experiment [1] it was 68.35 µM; in the experiment with C. tropicalis NCTC 7393 it was 168.5 µM; with K. aerogenes NCTC 7427 it was 168.5 µM; against P. mirabilis NCTC 12442, 168.5 µM. In addition, the MIC in the experiment with S. aureus ATCC 29213 is recorded as 136.69 µM; in experiment [2], 68.35 µM.
On to `CCCCCCCCCCn1cc[n+](C)c1.[Br][Ag-][Br]` [1-alkyl-3-methylimidazolium-AgBr2 10], for which the minimum inhibitory concentration (MIC) in the experiment on B. cereus is 79.78 µM; in the experiment with E. coli NCTC 8196, 32.68 µM; in experiment [1] it was 32.68 µM; in the experiment with C. tropicalis NCTC 7393 it was 79.78 µM; against K. aerogenes NCTC 7427, 79.78 µM; in the experiment on P. mirabilis NCTC 12442, 79.78 µM. In addition, the MIC (against S. aureus ATCC 29213; in experiment [2]) was 32.68 µM throughout.
Turning to `CCCCCCCCCCCC[n+]1ccn(C)c1.[Br][Ag-][Br]` [1-alkyl-3-methylimidazolium-AgBr2 12], the minimum inhibitory concentration (MIC) in the experiment on B. cereus is 68.81 µM; in the experiment with E. coli NCTC 8196 it was 31.32 µM; in experiment [1] it was 31.32 µM; in the experiment on C. tropicalis NCTC 7393, 75.85 µM; with K. aerogenes NCTC 7427 it was 34.40 µM; in the experiment on P. mirabilis NCTC 12442, 34.40 µM. Also, the MIC (against S. aureus ATCC 29213; in [2]) was 15.66 µM each time.
For `CCCCCCCCCCCCCC[n+]1ccn(C)c1.[Br][Ag-][Br]` [1-alkyl-3-methylimidazolium-AgBr2 14], the minimum inhibitory concentration (MIC) against B. cereus is on record as 72.2 µM; in the experiment on E. coli NCTC 8196, 15.03 µM; in [1], 15.03 µM; in the experiment with C. tropicalis NCTC 7393, 36.1 µM; against K. aerogenes NCTC 7427, 18.05 µM; in the experiment with P. mirabilis NCTC 12442, 18.05 µM. Moreover, the figures for the MIC (in the experiment with S. aureus ATCC 29213; in experiment [2]) were 3.76 µM and 15.03 µM, respectively.
Regarding `CCCCCCCCCCCCCCCCn1cc[n+](C)c1.[Br][Ag-][Br]` [1-alkyl-3-methylimidazolium-AgBr2 16], the MIC in the experiment on B. cereus amounted to 68.89 µM; in the experiment with E. coli NCTC 8196, 28.91 µM; in experiment [1] it was 3.61 µM; against C. tropicalis NCTC 7393, 34.44 µM; with K. aerogenes NCTC 7427, 34.44 µM; against P. mirabilis NCTC 12442, 34.44 µM. Further, the results for the MIC (in the experiment with S. aureus ATCC 29213; in [2]) were 7.23 µM and 3.61 µM, respectively.
Take `CCCCCCCCCCCCCCCCCC[n+]1ccn(C)c1.[Br][Ag-][Br]` [1-alkyl-3-methylimidazolium-AgBr2 18]: the MIC in the experiment with B. cereus is recorded as 65.87 µM; against E. coli NCTC 8196 it was 27.83 µM; in experiment [1] it was 13.91 µM; in the experiment on C. tropicalis NCTC 7393, 65.87 µM; against K. aerogenes NCTC 7427, 65.87 µM; against P. mirabilis NCTC 12442 it was 65.87 µM. Also, the MIC against S. aureus ATCC 29213 came out at 27.83 µM; in experiment [2], 13.91 µM.
For `CCCCCCCC[n+]1ccn(C)c1.CCCCCCCC[n+]1ccn(C)c1.[Cl][Cu-2]([Cl])([Cl])[Cl]` [(1-alkyl-3-methylimidazolium)2CuCl4 8], the MIC is listed as 1883.21 µM against B. cereus; 470 µM in the experiment with E. coli NCTC 8196; 470 µM in experiment [1]; 941.6 µM in the experiment on C. tropicalis NCTC 7393; 941.6 µM in the experiment with K. aerogenes NCTC 7427; 941.6 µM against P. mirabilis NCTC 12442. Also, the MIC (against S. aureus ATCC 29213; in experiment [2]) was 470 µM each time.
`CCCCCCCCCC[n+]1ccn(C)c1.CCCCCCCCCC[n+]1ccn(C)c1.[Cl][Cu-2]([Cl])([Cl])[Cl]` [(1-alkyl-3-methylimidazolium)2CuCl4 10]: the MIC in the experiment on B. cereus is given as 1746.4 µM; against E. coli NCTC 8196, 101.74 µM; in experiment [1], 101.74 µM; with C. tropicalis NCTC 7393, 218.3 µM; against K. aerogenes NCTC 7427, 218.3 µM; in the experiment on P. mirabilis NCTC 12442 it was 218.3 µM. In addition, the minimal inhibitory concentration (MIC) (in the experiment on S. aureus ATCC 29213; in experiment [2]) was 101.74 µM in each case.
For `CCCCCCCCCCCCn1cc[n+](C)c1.CCCCCCCCCCCCn1cc[n+](C)c1.[Cl][Cu-2]([Cl])([Cl])[Cl]` [(1-alkyl-3-methylimidazolium)2CuCl4 12], the MIC came out at 407 µM with B. cereus; 50.88 µM in the experiment with E. coli NCTC 8196; 50.88 µM in experiment [1]; 50.88 µM against C. tropicalis NCTC 7393; 50.88 µM with K. aerogenes NCTC 7427; 50.88 µM in the experiment on P. mirabilis NCTC 12442. Also, the MIC (against S. aureus ATCC 29213; in [2]) was 50.88 µM in each case.
Consider `CCCCCCCCCCCCCCn1cc[n+](C)c1.CCCCCCCCCCCCCCn1cc[n+](C)c1.[Cl][Cu-2]([Cl])([Cl])[Cl]` [(1-alkyl-3-methylimidazolium)2CuCl4 14], for which the MIC in the experiment with B. cereus was 80.06 µM; with E. coli NCTC 8196, 40.02 µM; in experiment [1], 20.01 µM; against C. tropicalis NCTC 7393, 20.01 µM; against K. aerogenes NCTC 7427, 40.02 µM; against P. mirabilis NCTC 12442, 20.01 µM. Further, the minimum inhibitory concentration (MIC) (with S. aureus ATCC 29213; in experiment [2]) was 40.02 µM each time.
`CCCCCCCCCCCCCCCCn1cc[n+](C)c1.CCCCCCCCCCCCCCCCn1cc[n+](C)c1.[Cl][Cu-2]([Cl])([Cl])[Cl]` [(1-alkyl-3-methylimidazolium)2CuCl4 16]: the MIC is reported as 89.63 µM against B. cereus; 44.81 µM against E. coli NCTC 8196; 44.81 µM in experiment [1]; 44.81 µM with C. tropicalis NCTC 7393; 44.81 µM against K. aerogenes NCTC 7427; 44.81 µM against P. mirabilis NCTC 12442. In addition, the minimum inhibitory concentration (MIC) (against S. aureus ATCC 29213; in experiment [2]) was 22.41 µM throughout.
With `CCCCCCCCCCCCCCCCCCn1cc[n+](C)c1.CCCCCCCCCCCCCCCCCCn1cc[n+](C)c1.[Cl][Cu-2]([Cl])([Cl])[Cl]` [(1-alkyl-3-methylimidazolium)2CuCl4 18], the MIC with B. cereus is given as 169.15 µM; in the experiment on E. coli NCTC 8196, 131.98 µM; in experiment [1], 131.98 µM; in the experiment with C. tropicalis NCTC 7393 it was 84.57 µM; in the experiment on K. aerogenes NCTC 7427, 338.29 µM; with P. mirabilis NCTC 12442 it was 338.29 µM. The minimum inhibitory concentration (MIC) (against S. aureus ATCC 29213; in experiment [2]) was 131.98 µM throughout.
`CCCCCCCCCCCCCC[n+]1ccn(C)c1C` [IL1, 1,2-dimethyl-3-tetradecylimidazolium bromide, reference compound]: the MIC in the experiment with B. cereus (Bacillus cereus) was 372 µM; with P. aeruginosa PA01, 743 µM; in the experiment with E. coli NCTC 8196 (Escherichia coli, NCTC8196), 46.5 µM; in experiment [1] (Staphylococcus epidermidis, ATCC12228) it was 213 µM; in the experiment on P. mirabilis NCTC 12442 (Proteus mirabilis, NCTC12442) it was 372 µM; in the experiment with MRSA, 186 µM.
For `CCCCCCCCCCCCCC[N+](C)(C)CCO` [IL2, N,N-dimethyl-N-(2-hydroxyethyl)-N-tetradecylammonium bromide, reference compound], the minimum inhibitory concentration (MIC) was found to be 13.3 µM with B. cereus (Bacillus cereus); 427 µM with P. aeruginosa PA01; 53.4 µM with E. coli NCTC 8196 (Escherichia coli, NCTC8196); 427 µM in the experiment on P. mirabilis NCTC 12442 (Proteus mirabilis, NCTC12442).
